Experimental data from patent publication US4904462A, “Multiply-tritiated steroidal-20,17-spirolactones and their use as tracer compounds” (Schering Aktiengesellschaft, priority 1984, dated 1990).

Columns and labels:
CBG = molecular target: T1, CBG (Homo sapiens, UniProt P08185); assay: Relative binding affinity to CBG, serum of pregnant women, 3H-cortisol displacement; settings: for Relative binding affinity (RBA), CBG: serum of pregnant women diluted 1:30, 3H-cortisol, cortisol = 100% RBA
T1 construct: a 1:30 dilution of the serum of pregnant women as the source of CBG; from tissue; host or cells: serum of pregnant women, diluted 1:30
T1 sequence (P08185 23-405): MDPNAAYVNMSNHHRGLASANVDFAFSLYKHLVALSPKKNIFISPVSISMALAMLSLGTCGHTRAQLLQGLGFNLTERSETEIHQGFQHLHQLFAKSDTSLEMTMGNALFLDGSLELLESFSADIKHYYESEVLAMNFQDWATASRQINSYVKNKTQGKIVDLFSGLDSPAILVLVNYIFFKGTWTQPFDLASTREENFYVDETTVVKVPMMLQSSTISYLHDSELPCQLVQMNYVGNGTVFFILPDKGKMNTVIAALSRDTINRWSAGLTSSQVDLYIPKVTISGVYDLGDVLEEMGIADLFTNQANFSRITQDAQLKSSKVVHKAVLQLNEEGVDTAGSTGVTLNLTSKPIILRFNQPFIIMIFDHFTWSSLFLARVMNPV
Procedure: (§1) The relative binding affinities (RBA values) of aldosterone, prorenone as well as the compounds of this invention were determined, for the progesterone receptor, in human uterus cytosol, for the glucocorticoid receptor, in liver cytosol, and for the mineralocorticoid receptor, in the kidney cytosol of adrenalectomized rats. The relative binding affinity with respect to CBG was measured in the serum of pregnant women, diluted 1:30.
As for the RBA values, for CBG an analogous procedure was followed, using ^3 H-cortisol and a 1:30 dilution of the serum of pregnant women as the source of CBG.

glucocorticoid receptor = molecular target: T2, glucocorticoid receptor (Rattus norvegicus, UniProt P06536); assay: Relative binding affinity, glucocorticoid receptor, liver cytosol, 3H-dexamethasone displacement; settings: for Relative binding affinity (RBA), Glucocorticoid Receptor: rat liver cytosol, 3H-dexamethasone 8 nmol/l, dexamethasone = 100% RBA
T2 construct: Cytosol from human uterus, rat kidneys and rat livers was prepared by homogenizing the tissues; from tissue; host or cells: rat liver cytosol
T2 sequence (P06536 1-795): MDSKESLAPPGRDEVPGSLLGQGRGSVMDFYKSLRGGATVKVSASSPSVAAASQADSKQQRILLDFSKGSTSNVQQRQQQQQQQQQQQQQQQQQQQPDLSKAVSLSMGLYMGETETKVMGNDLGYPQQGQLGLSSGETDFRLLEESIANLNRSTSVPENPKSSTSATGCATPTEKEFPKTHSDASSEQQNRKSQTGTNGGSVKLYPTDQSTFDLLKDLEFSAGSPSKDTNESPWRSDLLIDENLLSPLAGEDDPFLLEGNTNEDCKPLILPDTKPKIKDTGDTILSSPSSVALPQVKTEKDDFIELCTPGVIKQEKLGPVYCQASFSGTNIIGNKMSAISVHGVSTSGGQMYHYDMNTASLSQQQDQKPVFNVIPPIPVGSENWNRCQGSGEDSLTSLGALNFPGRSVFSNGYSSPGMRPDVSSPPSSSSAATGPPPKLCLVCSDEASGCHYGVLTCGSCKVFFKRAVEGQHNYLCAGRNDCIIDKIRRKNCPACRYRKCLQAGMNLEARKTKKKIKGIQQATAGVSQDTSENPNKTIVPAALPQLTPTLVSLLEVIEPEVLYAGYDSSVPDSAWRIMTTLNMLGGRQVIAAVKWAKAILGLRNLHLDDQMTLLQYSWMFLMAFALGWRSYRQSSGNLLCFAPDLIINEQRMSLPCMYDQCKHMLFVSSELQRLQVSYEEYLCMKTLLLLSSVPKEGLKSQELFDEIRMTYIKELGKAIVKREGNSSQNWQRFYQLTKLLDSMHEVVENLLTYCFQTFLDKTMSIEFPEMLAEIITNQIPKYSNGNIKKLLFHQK
Procedure: as §1
(§2) Cytosol from human uterus, rat kidneys and rat livers was prepared by homogenizing the tissues under cooling with the addition of receptor-stabilizing buffer (10 mmol/1 of KH2 PO4, 10 mmol/1 of K2 HPO4, 1.5 mmol/1 of EDTA, 3 mmol/1 of NaN3, 5 mmol/1 of monothioglycerol, 10% glycerol, pH 7.5). The homogenate was then centrifuged for 30 minutes at 105,000×g. The thus-formed supernatant centrifugation liquor corresponds to the tissue cytosol utilized for receptor testing. Then, in each case, 50 μl of a ^3 H-steroid (^3 H-R5020) for progesterone receptor testing, ^3 H-dexamethasonefor glucocorticoid receptor testing, ^3 H-aldosterone for mineralocorticoid receptor testing), dissolved in a buffer, was pipetted into test tubes (final concentration 8 nmol/1). Thereafter, the various steroids to be tested (in respectively six different concentrations: 10^-10 to 10^-5 mol/1) in 50 μl of buffer were added to the incubating tubes. Finally, 100 μl of cytosol was introduced into each tube by pipetting, and the incubation batch was thoroughly mixed and incubated overnight at 0°-4° C. Incubation was terminated by adding 0.5 ml of dextran-layered activated carbon (DCC) in a buffer. After 10 minutes of incubation under cooling, DCC was removed by centrifuging and thus the free, not receptor-bound steroid was separated from the receptor-bound steroid. The radioactivity was measured in the supernatant centrifugation liquors by means of a scintillation counter. All thus-determined values result from triple measurements. The measured dpm values were expressed in % of relative binding affinity, the RBA value referring to 50% displacement of the ^3 H-labeled ligand by its unlabeled authentic steroid (=100% RBA).

[1] = molecular target: T3, mineralocorticoid receptor (Rattus norvegicus, UniProt P22199); assay: Relative binding affinity, mineralocorticoid receptor, kidney cytosol, 3H-aldosterone displacement; settings: kidney cytosol of adrenalectomized rats; 3H-aldosterone 8 nmol/l; aldosterone = 100% RBA
T3 construct: Cytosol from human uterus, rat kidneys and rat livers was prepared by homogenizing the tissues; from tissue; host or cells: kidney cytosol of adrenalectomized rats
T3 sequence (P22199 1-981): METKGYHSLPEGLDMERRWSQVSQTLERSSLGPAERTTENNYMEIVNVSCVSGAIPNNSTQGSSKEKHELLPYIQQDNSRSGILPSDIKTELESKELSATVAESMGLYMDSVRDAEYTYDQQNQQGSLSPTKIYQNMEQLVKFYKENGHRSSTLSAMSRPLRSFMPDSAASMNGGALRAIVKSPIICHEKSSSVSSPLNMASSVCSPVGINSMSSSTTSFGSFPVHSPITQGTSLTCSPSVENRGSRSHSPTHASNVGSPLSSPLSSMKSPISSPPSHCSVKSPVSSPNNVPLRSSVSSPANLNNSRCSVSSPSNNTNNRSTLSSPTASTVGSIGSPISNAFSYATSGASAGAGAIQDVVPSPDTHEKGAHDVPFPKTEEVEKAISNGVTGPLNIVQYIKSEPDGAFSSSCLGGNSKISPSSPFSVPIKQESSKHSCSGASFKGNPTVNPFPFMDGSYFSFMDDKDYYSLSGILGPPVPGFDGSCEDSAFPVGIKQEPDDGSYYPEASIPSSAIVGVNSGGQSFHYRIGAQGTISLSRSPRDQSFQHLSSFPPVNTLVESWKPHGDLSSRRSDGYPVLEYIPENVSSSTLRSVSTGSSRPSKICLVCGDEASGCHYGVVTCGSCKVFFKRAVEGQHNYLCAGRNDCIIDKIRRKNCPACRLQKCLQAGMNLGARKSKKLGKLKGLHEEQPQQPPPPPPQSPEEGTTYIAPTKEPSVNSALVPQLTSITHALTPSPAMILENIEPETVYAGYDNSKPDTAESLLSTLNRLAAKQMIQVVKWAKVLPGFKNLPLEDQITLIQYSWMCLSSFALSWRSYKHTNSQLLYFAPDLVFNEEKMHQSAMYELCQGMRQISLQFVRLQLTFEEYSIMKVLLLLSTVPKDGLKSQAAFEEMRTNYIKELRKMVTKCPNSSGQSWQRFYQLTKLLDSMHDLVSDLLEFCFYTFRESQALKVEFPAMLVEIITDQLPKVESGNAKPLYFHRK
Procedure: as §1, §2

progesterone receptor = assay: Relative binding affinity, progesterone receptor, human uterus cytosol, 3H-R5020 displacement; settings: 3H-R5020 8 nmol/l, R5020 = 100% RBA
Procedure: as §1, §2

[2] = Metabolic stability under the conditions of the receptor test; format: in vitro ADME; settings: in vitro receptor test conditions

Molecule	Relative binding affinity (RBA), CBG (CBG)	Relative binding affinity (RBA), Glucocorticoid Receptor (glucocorticoid receptor)	Relative binding affinity (RBA), Mineralocorticoid Receptor [1]	Relative binding affinity (RBA), Progesterone Receptor (progesterone receptor)	metabolic stability under the conditions of the receptor test [2]	relative binding affinity (RBA value) to the human serum protein CBG (CBG; with respect to cortisol)	relative binding affinity in rat liver cytosol (glucocorticoid receptor; with respect to dexamethasone)
1α,2α;15β,16β-dimethylene-7α-methoxycarbonyl-3-oxo-17α-[18,19-^3 H4 ]pregn-4-ene-21,17-carbolactone [Example 7]	< 0.1%	0.2%	600%	0.2%	–	–	–
C[C@]12CCC(=O)C=C1CC[C@@H]1[C@@H]2[C@@H](O)C[C@]2(C=O)[C@@H](C(=O)CO)CC[C@@H]12 [Aldosterone, reference compound]	6%	30%	–	0.2%	is metabolized under in vitro conditions of receptor testing	6%	30%
7α-[1'-(^3 H3)-ethoxy]carbonyl-15β,16β-methylene-3-oxo-17α-pregn-4-ene-21,17-carbolactone [Example 8]	< 0.1%	0.8%	800%	0.95%	–	–	–
6μ,7β;15β,16β-dimethylene-3-oxo-17α-[18,19-^3 H4 ]pregna-1,4-diene-21,17-carbolactone [Example 3]	< 0.1%	0.9%	90%	50%	–	–	–
C[C@]12CCC(=O)C=C1[C@@H]1C[C@@H]1[C@H]1[C@@H]3[C@@H]4C[C@@H]4[C@@]4(CCC(=O)O4)[C@@]3(C)CC[C@@H]12 [Prorenone, reference compound]	< 0.01%	3%	200%	32%	–	–	–
7α-(^3 H3)methoxycarbonyl-15β,16β-methylene-3-oxo-17α-[18,19-^3 H4 ]pregn-4-ene-21,17-carbolactone [Example 4]	< 0.1%	0.8%	400%	0.5%	–	–	–
7α-[1'-(^3 H3)ethoxy]carbonyl-15β,16β-methylene-3-oxo-17α-pregna-1,4-diene-21,17-carbolactone [Example 6]	< 0.1%	0.4%	600%	0.2%	–	–	–
